Test results from PubChem BioAssay (NCI).
Several values for one entry are separate records, joined by “and”; a condition that tells them apart may be missing. Equal values may be shown once.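 Exposure lasted 48 hours, with cells grown in 96-well plates and compounds tested at five concentrations. GI50: concentration for 50% inhibition of growth. TGI is the concentration that stops growth completely.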

Key:
Test in all cases: NCI tumour cell line growth inhibition, 48 h
786-0 renal = system: 786-0 renal
U251 CNS = system: U251 CNS
SF-295 CNS = system: SF-295 CNS
MDA-MB-231 breast = system: MDA-MB-231 breast
HOP-62 NSCLC = system: HOP-62 NSCLC
MALME-3M melanoma = system: MALME-3M melanoma
NCI-H460 lung = system: NCI-H460 lung
SNB-19 CNS = system: SNB-19 CNS
NCI-H226 lung = system: NCI-H226 lung
RPMI-8226 leukemia = system: RPMI-8226 leukemia

| Compound | TGI (786-0 renal) | TGI (U251 CNS) | TGI (SF-295 CNS) | TGI (MDA-MB-231 breast) | TGI (HOP-62 NSCLC) | TGI (MALME-3M melanoma) | TGI (NCI-H460 lung) | TGI (SNB-19 CNS) | TGI (NCI-H226 lung) | GI50 (RPMI-8226 leukemia) | TGI (RPMI-8226 leukemia) | GI50 (786-0 renal) | GI50 (U251 CNS) | GI50 (SF-295 CNS) | GI50 (MDA-MB-231 breast) | GI50 (HOP-62 NSCLC) | GI50 (NCI-H460 lung) | GI50 (SNB-19 CNS) | GI50 (NCI-H226 lung) | GI50 (MALME-3M melanoma) |
| --- | --- | --- | --- | --- | --- | --- | --- | --- | --- | --- | --- | --- | --- | --- | --- | --- | --- | --- | --- | --- |
| COc1ccc2c(c1)Cc1cc(N=[N+]([O-])c3ccc4c(c3)Cc3cc(OC)ccc3-4)ccc1-2 | > 100 µM | 30.8 µM | > 100 µM | > 100 µM | > 100 µM | > 100 µM | > 100 µM | > 100 µM | > 100 µM | – | – | – | – | – | – | – | – | – | – | – |
| COC(=O)C1=C(O)C(C(=O)OC)[C@@]2(O)[C@@H](C(=O)OC)C(c3ccc(OC(=O)C(Cc4ccccc4)NC(C)=O)cc3)C[C@@H]1[C@@H]2C(=O)OC (some centres undefined) | 43.5 µM | 32.8 µM | 69.3 µM | 58.8 µM | 54.3 µM | – | > 100 µM | > 100 µM | 75.1 µM | 20.6 µM | 71.4 µM | 18.3 µM | 15.9 µM | 32.8 µM | 21 µM | 22.5 µM | 20.5 µM | 36.4 µM | 25.5 µM | – |
| CC(=N\O)/C(C)=N/O.CC(=N\O)/C(C)=N/O.[Pd] | 8.86 µM | > 10 µM | > 10 µM | 9.03 µM | > 10 µM | 4.53 µM | > 10 µM | > 10 µM | > 10 µM | 7.39 µM | > 10 µM | 3.31 µM | 5.12 µM | > 10 µM | 3.3 µM | 5.62 µM | 9.28 µM | > 10 µM | > 10 µM | 1.9 µM |
| COc1cc(C2CC(c3ccc(C)cc3)=NN2C(C)=O)ccc1Oc1ccnc2cc(Cl)ccc12 (centres undefined) | 10.4 µM | > 100 µM | > 100 µM | > 100 µM | > 100 µM | > 100 µM | – | > 100 µM | > 100 µM | > 100 µM | > 100 µM | 1.17 µM | 1.41 µM | 2.52 µM | 11.3 µM | 4.3 µM | – | 37.4 µM | 5.38 µM | > 100 µM |
| COc1ccc(-n2cc(-c3ccc(Cl)cc3)[nH]c2=S)cc1Cl | 41.4 µM | > 100 µM | 57.7 µM | 82.2 µM | 92.2 µM | > 100 µM | > 100 µM | 55 µM | 65.6 µM | 55.3 µM | > 100 µM | 20 µM | 32.3 µM | 22 µM | 22.1 µM | 32.4 µM | 50.5 µM | 20.1 µM | 23.7 µM | > 100 µM |
| COC1=C(NC(C)=O)C(=O)c2nc3n(c2C1=O)CCC3 | 36.4 µM | > 59.9 µM | 40.3 µM | 27.1 µM | 39.9 µM | 34.8 µM | > 76 µM | 67.6 µM | 49.4 µM | – | > 79.2 µM | – | – | – | – | – | – | – | – | – |
| CCCCCc1c(C)[nH]c(/C=C2\N=C(c3ccc[nH]3)C=C2Oc2ccc(OC)cc2)c1C | 0.328 µM and 0.315 µM | – | 0.735 µM and 0.437 µM | – | 1.69 µM and 1.49 µM | 1.34 µM and 0.261 µM | 1.17 µM | 1.99 µM | – | 0.0896 µM and 0.0313 µM | 1.13 µM and 0.332 µM | 0.141 µM and 0.0404 µM | 0.0811 µM and 0.026 µM | 0.18 µM and 0.0775 µM | 0.0833 µM and 0.0117 µM | 0.159 µM and 0.0768 µM | 0.085 µM and 0.038 µM | 0.44 µM and 0.098 µM | 0.118 µM and 0.139 µM | 0.262 µM and 0.0744 µM |
| CC(C)n1c2c(c3ccccc3c1=O)C(=O)c1ccccc1-2 | > 100 µM | > 100 µM | > 100 µM | > 100 µM | > 100 µM | > 100 µM | – | > 100 µM | > 100 µM | – | > 100 µM | – | – | – | – | – | – | – | – | – |
| C=CC[n+]1c(/C=C2\Sc3ccccc3N2C)sc(-c2ccccc2)c1-c1ccccc1 | 11.1 µM | 12.4 µM | 0.903 µM | 2.99 µM | 4.75 µM | 0.672 µM | 11.4 µM | 15.1 µM | 0.977 µM | 0.25 µM | 0.987 µM | 0.419 µM | 0.315 µM | 0.276 µM | 0.287 µM | 0.302 µM | 0.284 µM | 0.375 µM | 0.258 µM | 0.253 µM |
| CC(=O)c1c[nH]c2ccc(-c3ccnc(Nc4ccc(NC(=O)c5cccc(F)c5)c(CN5CCOCC5)c4)n3)cc12 | > 26.2 µM | > 21 µM | 1.75 µM | 1.3 µM | 18.7 µM | 0.749 µM | – | 9.8 µM | 1.76 µM | 0.325 µM | 1.35 µM | 0.157 µM | 0.218 µM | 0.249 µM | 0.177 µM | 0.221 µM | 0.176 µM | 0.218 µM | 0.148 µM | 0.254 µM |
| Cc1c(Br)cccc1NC(=O)c1sc2nc3c(cc2c1N)CN(Cc1ccccc1)CC3 | 7.98 µM | 5.58 µM | 9.42 µM | 38.1 µM | 4.44 µM | 6.04 µM | 5.02 µM | > 50 µM | 18.9 µM | – | – | 0.256 µM | 0.242 µM | 0.129 µM | 0.531 µM | 0.204 µM | 0.191 µM | 0.448 µM | 1.18 µM | 0.256 µM |
| Oc1ccc(Br)cc1CN1CCN(Cc2ccc(Cl)cc2)CC1 | 80.9 µM | > 100 µM | > 100 µM | 59.4 µM | > 100 µM | 45.8 µM | > 100 µM | > 100 µM | > 100 µM | 14.4 µM | > 100 µM | 21.2 µM | 27.7 µM | 18.6 µM | 17 µM | 36.5 µM | 25.7 µM | 37.8 µM | 20.8 µM | 14.7 µM |
| CC([C@H]1CCC2C3CCC4C(=O)C(NC=O)=CC[C@]4(C)C3CC[C@@]21C)N(C)C (some centres undefined) | 7.76 µM | 15.2 µM | 5.67 µM | 7.07 µM | 4.56 µM | 5.96 µM | 5.49 µM | 22.1 µM | 19.4 µM | 2.75 µM | 18 µM | 2.48 µM | 3.43 µM | 2.11 µM | 2.36 µM | 2.01 µM | 2.15 µM | 8.39 µM | 4.72 µM | 2.34 µM |
| COC1=CC(=O)c2c(O)c3c(c(O)c2C1=O)CC(C)(O)OC3 (centres undefined) | 27.3 µM | 10.5 µM | 13.9 µM | > 41 µM | 12.7 µM | 2.1 µM | 6.48 µM | 13.4 µM | 37.2 µM | – | > 76.8 µM | – | – | – | – | – | – | – | – | – |
| COc1cc2c(cc1OC)[C@@H]1[C@H](C2=O)c2ccc([N+](=O)[O-])cc2C(=O)N1CCCBr | 0.285 µM | 1.39 µM | – | 6.61 µM | 0.709 µM | 3.09 µM | – | > 100 µM | 1.24 µM | 0.145 µM | 1.87 µM | < 0.0489 µM | 0.134 µM | – | 1.45 µM | < 0.0277 µM | – | 0.474 µM | 0.281 µM | 0.367 µM |
| O=C1C=Cc2cc3ccccc3c3cccc1c23 | > 100 µM | 43.1 µM | 35.8 µM | 29 µM | 29.5 µM | – | 11.6 µM | > 100 µM | 10 µM | 2.62 µM | 8.5 µM | 4.29 µM | 4.38 µM | 7.65 µM | 4.72 µM | 2.12 µM | 3.37 µM | 8.51 µM | 2.61 µM | – |
| N=C(N)c1ccc(-c2ccc(-c3ccco3)o2)cc1 | 17.1 µM | 11.8 µM | – | 7.75 µM | 23 µM | 4.12 µM | 6.6 µM | 23.2 µM | 33.1 µM | 2.51 µM | 7.52 µM | 3.93 µM | 2.92 µM | – | 2.75 µM | 10.4 µM | 2.43 µM | 9.44 µM | 14.4 µM | 2.15 µM |
| COc1cc(OC)cc(-c2n[nH]nc2-c2ccc3c(c2)OCO3)c1 | 63.5 µM | 11.2 µM | 3.61 µM | 31.5 µM | > 100 µM | – | 28.7 µM | > 100 µM | > 100 µM | 0.326 µM | 22.1 µM | 0.618 µM | 0.302 µM | 0.0989 µM | 0.529 µM | 0.336 µM | 0.335 µM | 0.501 µM | 5.15 µM | – |
| C=C1c2c(C)nn(-c3ccccc3)c2N(C)C23C[C@@H]1C1(C)c4c(C)nn(-c5ccccc5)c4N(C)C(C)(C[C@H]12)C3 (some centres undefined) | 69.4 µM | 31.6 µM | – | 39.6 µM | 25.9 µM | 93.5 µM | > 100 µM | 79.6 µM | > 100 µM | – | – | 11.8 µM | 4.44 µM | – | 4.55 µM | 7.15 µM | 3.35 µM | 11 µM | 15.3 µM | 4.19 µM |
| CC(CC(C)[C@H]1CCC2[C@H]3C(CC[C@@]21C)[C@@]1(C)CCC(O)C[C@H]1C[C@@H]3O)C(=O)O (some centres undefined) | > 100 µM | > 100 µM | – | > 100 µM | > 100 µM | > 100 µM | > 100 µM | > 100 µM | > 100 µM | – | > 100 µM | – | – | – | – | – | – | – | – | – |
| CCCCC#Cc1c(I)n(C2OC(CO[Si](C)(C)C(C)(C)C)C3OC(C)(C)OC32)c(=O)[nH]c1=O (centres undefined) | 29 µM | > 100 µM | 51.5 µM | 9.55 µM | 34.7 µM | 24.8 µM | – | – | 25.6 µM | 2.17 µM | 5.28 µM | 15.4 µM | 21.9 µM | 22 µM | 2.44 µM | 20 µM | – | – | 12.7 µM | 5.45 µM |
